# *1 amine or outer side, *2 acyl side, *3 side chain or, on linkers, in order; H or OH if unused. Where no end group is shown, it is not given here. [ ]: non-standard residue; d: D form. βAsp = O=C(O)[C@H](CC(=O)[*:2])N[*:1]
# Legend:
# [1] = system: auto-antibodies in RA sera; test: ELISA detection of auto-antibodies in sera on Thy-GA-peptide conjugate coated plates (Example 2); assay type: binding, human; conditions: sera diluted one-hundred fold; MTP coated with Thy-GA conjugate 10 μg/ml; absorbency at 450 nm
# Text: It was investigated whether auto-antibodies would recognise an Asn-315 derived septa-peptide and whether such auto-antibodies are a characteristic feature of rheumatoid arthritis. In order to carry out such investigations the IgG Fc Asn-315 derived (βL) septa-peptide Trp-Leu-Asp-β-Gly-Lys-Glu-Tyr, was manufactured synthetically. The peptide used was a preparation of linear (αL form) Trp-Leu-Asn-Gly-Lys-Glu-Tyr peptide heated to promote isomerisation by the following procedure. The peptide was dissolved in the buffer and heated for 4 hours at 90° C. to promote isomerisation and/or optical inversion. The resulting mix of isomerised (βL) optically inverted (αD and βD) and linear (αL) peptides were analysed by RP-HPLC using a 15-35% acetonitrile gradient in 0.1% TFA over 10 minutes with a flow rate of 1 ml/min, and the isomerisation status of the resulting peaks were studied by amino-acid analysis as described above. This peptide was dissolved at 5 mg/ml in 0.2 M Na-Phosphate pH 9.2. […]
# 0.5 ml thyroglobulin (30 mg/ml) in 0.1 M Na-phosphate buffer pH 8.0, was added drop-wise (over 2 minutes) and under constant mixing to 0.5 mL of the following solution: 10% GA, 40% H2O, 50% 0.2 M Na-Phosphate pH 8.0. […] The final volume was adjusted to 1500 μL and the protein concentration was determined by a BioRad protein assay performed according to the manufacturers instructions. […]
# RA autoantibodies = test: Competition ELISA: binding of RA autoantibodies to Thy-GA-Trp-Leu-*Asx-Gly-Lys-Glu-Tyr coated plates (Example 3); set-up: species or system human; conditions: competitor 50 μl of 50 μg/ml pre-incubated with serum 17 hours at 4° C.; 6 RA sera
# Protocol: The Thy-GA-Trp-Leu-*Asx-Gly-Lys-Glu-Tyr conjugate was dissolved in PBS to a final concentration of 10 μg/ml, and 100 μL of this solution is pipetted into the wells of a micro-titre-plate (MTP, flat-well polysorb, Nunc). the plate was blocked as described (Bonde et al 1994), and serum samples diluted one-hundred fold in 10 mM Na-phosphate, 140 mM NaCl, 0.1% tween-20, 1% BSA pH 7.4 (assay buffer) were added. The MTP was left for one hour ±5 minutes on a rotary shaker at 20° C. The plates were washed five times in washing buffer (25 mM tris, 140 mM NaCl, 0.1% tween-20 pH 7.4), by a manual plate washer. One-hundred μL assay buffer containing a one-thousand fold dilution of Perxidase conjugated rabbit anti human λ-chains (Dako 063) and κ-chains (Dako 013) was added into each well. The MTP was again incubated for one hour ±5 minutes on a rotary mixer at 20° C. After 5 times washing, 100 μl of peroxidase substrate was added (3,3′,5,5′ tetramethylbenzidine dihydrochloride (TMB), Kirkegaard & Perry Laboratories, USA) and incubated for 15±2 minutes at room temperature (18-22° C.) in the dark. After addition of 0.18 M H2SO4, the absorbency was measured at 450 nm.
# The experiment was carried out as follows. Serum samples were diluted one-hundred fold in 10 mM Na-phosphate, 140 mM NaCl, 0.1% tween-20, 1% BSA pH 7.4 (assay buffer). Two-hundred μl was added to 1.5 ml polypropylene tubes followed by addition of 50 μl of the following reagents dissolved in assay buffer at a concentration of 50 μg/ml:
# The tubes were placed at 4° C. for 17 hours, and one-hundred μl of the mixture was added into MTP coated with Thy-GA-Trp-Leu-*Asx-Gly-Lys-Glu-Tyr conjugate. The assay was performed as described above under example 2.
# [2] = system: auto-antibodies reactive with isomerised IgG Fc Asn-315 derived peptides; test: Homogeneous RIA with 125I Thy-GA-Trp-Leu-*Asx-Gly-Lys-Glu-Tyr tracer, competition with peptides (Example 4); assay type: binding, human; conditions: highest concentration (10,000 ng/ml); P-0.01 by Student's T-Test
# Protocol: A homogeneous RIA assay was developed for measurement of auto-antibodies with reactivity towards the isomerised form of the epitope Trp-Leu-Asn-Gly-Lys-Glu-Tyr derived from the IgG CH2 region. The assay was performed by incubating serum samples with ^125I Thy-GA-Trp-Leu-*Asx-Gly-Lys-Glu-Tyr overnight followed by precipitation of immune-complexes with protein A Sepharose.
# Serum samples are diluted 1:200 in IMP buffer (IMP-buffer: 10 mm Na-Phosphate, pH 7.4, 140 mM NaCl, 5 mM EDTA, 0.5% Triton X-100, 0.1% BSA, 10 μg/ml soy-bean trypsin inhibitor). A Thy-GA-Trp-Leu-*Asx-Gly-Lys-Glu-Tyr conjugate is prepared as described in example 2 and iodinated with ^125I using the chloramine T protocol: 100 μg of the conjugate is diluted in 0.25 M Na2HPO4 to a total volume of 140 μl. 1.5 mCi Na^125I is added followed by 10 μL Chloramin-T (1 mg/ml, prepared freshly). The solution is vortexed for 30 seconds and 150 μL methionine (1 mg/ml) is added and immediately vortexed for 120 sec. The tracer is purified on size exclusion column (type: BIOSEP SEC S-2000, size: 300×7.80 mm) equilibrated with PBS containing 1% BSA Plow rate 1.0 ml/min. 500 μl fractions are collected and analysed in a scintillation counter (γ-counter). The fractions containing the tracer are pooled and used in the homogeneous RIA assay format. […]
# Lewis rats [3] = test: Induction of Experimental Autoimmune Encephalomyelitis by immunisation with MBP87-99 peptides (Example 7); assay type: in vivo, rat; conditions: for incidence of full-blown EAE (clinical score ≧2) / time of minimum weight / reduction of weight compared to PBS controls at minimum: Lewis rats, 200 μg peptide in CFA i.d.; for reduction of weight compared to PBS controls at minimum: 16 days post immunization
# Text: Experimental Autoimmune Encephalomyelitis (EAE) is a paralytical central nervous system (CNS) disease that can be induced readily in susceptible animals by immunisation with myelin proteins. In this experiment MBP87-99 peptides (VHFFKNIVTPRTP) in linear and isomerised forms were used for induction of clinical EAE in Lewis rats.
# 36 female Lewis (L haplotype, Harlan) rats, 8 weeks of age were used in the experiment.
# The animals were randomly assigned to one of the following three treatment groups: 1) a group receiving Asn or isoAsp MBP87-99 peptides 2) a positive control group receiving whole guinea pig MBP, and a negative control receiving PBS. The study was performed in a blinded fashion where the observer was unaware of the treatment of the animal. Below a detailed description of the three treatment groups is provided.
# (§1) 1) MBP87-99 Group: Peptides were dissolved in PBS (2 mg/ml). The peptide solution was mixed 1:1 with CFA supplemented with Mycobacterium tubercolosum H37RA, 4 mg/ml and mixed until an emulgate Wars formed. 200 μl emulgate was injected per rat, intra-dermally (i.d.) in the root of the tail (containing 200 μg MBP87-99 and 400 μg Mycobacterium).
# The neurological function in immunised animals was evaluated daily. The evaluation was performed blinded by an observer unaware of the treatment groups and codes used in the experiment. This evaluation was performed daily, where the clinical signs of EAE were noted. The clinical signs of EAE were scored according to the following scale: grade 0=no clinical signs, grade 1=tail paralysis or unsteady gait, grade 2=hind leg paraparesis, grade 3=hind leg paralysis, grade 4=complete paralysis (tetraplegia) and grade 5 moribound state or death.
# The weight of animals was also measured on a daily basis, as one of the earliest signs of EAE is a weight reduction. The weight of the MBP and peptide immunised animals was compared to the PBS control-group.
# Lewis rats [4] = test: Oral tolerance: feeding of isoAspartyl MBP87-99 before EAE induction (Example 8); assay type: in vivo, rat
# Protocol: 32 female Lewis (L haplotype, Harlan) rats, 8 weeks of age were used in the experiment.
# as §1, with “Animals were immunised with the iso-aspartyl form of MBP87-99.” for “1) MBP87-99 Group:”, “mg/).” for “mg/ml).”, “was” for “Wars”
# The solutions containing the MBP87-99 isoAspartyl peptides are fed to the animals using a plastic syringe. Control animals are given PBS alone. The effect of the oral administered peptide preparations is investigated at two dosing regimens (one dose 7 days before immunisation vs. 3 doses at one-week intervals before the immunisation. Furthermore, the effect of the dose of orally administered *Asx containing peptide on disease expression is investigated. Rats are fed various amounts of the peptide listed above 14 days before the day of immunisation (day −14) and at day −7 and 0 (day of immunisation). The rats are given either 25, 100 or 500 μg of the peptide, and eight rats are allocated to each treatment regimen as indicated in the table below.
# The disease progression was monitored daily by scoring the neurological function in immunized animals as described in example 7. In addition animals were weighed daily. In addition, the animals were sacrificed sixteen days after immunisation for histopathological examination. The rat brains and spinal cords were dissected, fixed in 70% ethanol, containing 5% acetic acid and 4% formalin, dehydrated and embedded in paraffin. Multiple 5 μm thick section were prepared from cerebellum, brain stem, spinal cord C1-4 and L1-6 and stained with hematoxylin-eosin. The frequency of inflammatory infiltrates were scored, using hematoxylineosin stained section, as follows: 0 No inflammation, 1 small number of perivascular infiltration present in the tissue, 2 inflammation with several perivascular infiltrates, and 3 several perivascular infiltrates and tissue necrosis. […]
competition of binding of RA autoantibodies to Thy-GA-Trp-Leu-*Asx-Gly-Lys-Glu-Tyr coated plates (RA autoantibodies),Substance,autoantibody reactivity of RA RF+ sera compared with RA RF- and control sera (ELISA signal) [1],"reactivity in competition RIA (percent inhibition by competing peptide), group basis [2]",incidence of full-blown EAE (clinical score ≧2) (Lewis rats [3]) [%],time of minimum weight (Lewis rats [3]) [days post immunization],reduction of weight compared to PBS controls at minimum (Lewis rats [3]) [%],further results
able to compete out the binding,Thy-GA-Trp-Leu-*Asx-Gly-Lys-Glu-Tyr: peptide coupled to thyroglobulin with glutaraldehyde,,significant reactivity,,,,
could be competed out,Trp-Leu-*Asx-Gly-Lys-Glu-Tyr,elevated autoantibody reactivity,,,,,
able to compete out the binding,Trp-Leu-Asp-β-Gly-Lys-Glu-Tyr,,significant reactivity,,,,

# The remaining lines, values behind:
Substance,competition of binding of RA autoantibodies to Thy-GA-Trp-Leu-*Asx-Gly-Lys-Glu-Tyr coated plates (RA autoantibodies),autoantibody reactivity of RA RF+ sera compared with RA RF- and control sera (ELISA signal) [1],"reactivity in competition RIA (percent inhibition by competing peptide), group basis [2]",incidence of full-blown EAE (clinical score ≧2) (Lewis rats [3]) [%],time of minimum weight (Lewis rats [3]) [days post immunization],reduction of weight compared to PBS controls at minimum (Lewis rats [3]) [%],further results
Thy-GA-Glu-Lys-Ala-His-*Asx-Gly-Gly-Arg: another irrelevant Thy-GA conjugate [reference compound],,no differentiation between the groups,,,,,
"VHFFKNIVTPRTP [Asn MBP87-99, non-modified MBP87-99 peptide, reference compound]",,,,75,16,26,fraction of animals affected by EAE with relatively mild symptoms (clinical score <3) (Lewis rats [3]; scale grade 0-5): one third
"isoAsp MBP87-99: MBP87-99 peptide (VHFFKNIVTPRTP) in isomerised form, Asn 92 giving iso-Asp (VHFFK[βAsp]IVTPRTP)",,,,25,16,19,"EAE induction (result in words) (Lewis rats [3]; onset, peak score day and score levels comparable to non-modified control peptide): induced significant EAE; clinical score of all animals affected with EAE (Lewis rats [3]; scale grade 0-5): ≥ 3; EAE development after multiple 500 μg oral feedings (Lewis rats [4]; 500 μg fed at days -14, -7 and 0): complete suppression; EAE development after multiple oral feedings (Lewis rats [4]; fed at days -14, -7 and 0 before immunisation with iso-aspartyl MBP87-99): complete suppression; mean histological score (number of inflammation foci) compared to controls (Lewis rats [4]; multiple oral doses, sixteen days after immunisation, P<0.05): significantly reduced"
